Experiments:
[1] = target: PI3-Kα (Mus musculus (Mouse), UniProt P42337); assay: PI3-Kα Biochemical Assay (fluorescence polarization kinase assay)
Protocol: Compounds of the present invention were evaluated for potency against PI3-Kα using an in vitro kinase assay. PI3-Kα activity is measured in vitro by determining the level of phosphorylation of the substrate PI(4,5)P2. The formation of product PI(3,4,5)P3 is monitored by binding to the Grip1 PH domain in a ligand displacement fluorescence polarization (FP) assay, in which the TAMRA-labeled PI(3,4,5)P3 complexed with Grip1 PH domain is displaced by PI(3,4,5)P3 formed in the PI3-Kα reaction resulting in a decrease in FP signal. Mouse PI3-Kα P110 and P85 subunits were co-expressed in insect cells and co-purified to homogeneity. PI(4,5)P2 were obtained from Cayman. TAMRA-labeled PI(3,4,5)P3 were from Echelon, Grip1 PH domain from Dundee and other reagents were from Sigma.
All assays were performed in a Corning solid black 96-well half area plate using LJL Analyst (Molecular Devices) at room temperature. The assay buffer contained 50 mM HEPES, pH 7.4, 150 mM NaCl, 5 mM DTT, and 0.05% CHAPS. Dry powder PI(4,5)P2 was dissolved in 50 mM TRIS, pH 8 to make 1 mM stock solution. The PI(4,5)P2 stock solution was then diluted in the assay buffer to 60 μM, and sonicated for 30 sec before use. To the assay plate, the following reagents were added in sequence: 10 μL of 60 μM PI(4,5)P2, 5 μL of 4 nM PI3-Kα, 2 μL of compound in 25% DMSO, 3 μL of mixture containing 200 μM ATP and 33 mM MgCl2. The final volume for the reaction was 20 μL. The reaction mixture was incubated at room temperature for 35 min. The reaction was then stopped by 20 μL of 20 mM EDTA. […] The FP signal was allowed to develop for 40 min before reading on a LJL analyst at excitation 535 nm and emission 580 nm.
The percentage of inhibition was calculated based on the following equation % inhibition=[1−(FPcompound−FPmax)/(FPmin−FPmax)]×100, where FPcompound is the FP reading at a given compound concentration, FPmin is the FP signal of the PI3-Kα reaction in the absence of a compound, and FPmax is the background FP signal in the absence of PI3-Kα and a compound. The IC50 was determined by fitting the FP signal vs. compound concentration to a sigmoidal dose response equation using GraphPad Prism curve fitting program.

[2] = test system: PI3-K in BT20 cells (phosphorylation of AKT at serine 473); assay: PI3-Kα Cellular Assay (AKT Ser473 phosphorylation ELISA in BT20 cells); format: cell-based, human; settings: Homo sapiens, BT-20, pAKT Ser473 ELISA, 1 hour incubation
Outline: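 Cells seeded overnight in 0.5% FBS, then exposed 1 h at 37 °C to an 11-concentration 1:3 dilution series, in duplicate.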

PI3-Kα, sequence (P42337 whole entry, the tested form may be a part): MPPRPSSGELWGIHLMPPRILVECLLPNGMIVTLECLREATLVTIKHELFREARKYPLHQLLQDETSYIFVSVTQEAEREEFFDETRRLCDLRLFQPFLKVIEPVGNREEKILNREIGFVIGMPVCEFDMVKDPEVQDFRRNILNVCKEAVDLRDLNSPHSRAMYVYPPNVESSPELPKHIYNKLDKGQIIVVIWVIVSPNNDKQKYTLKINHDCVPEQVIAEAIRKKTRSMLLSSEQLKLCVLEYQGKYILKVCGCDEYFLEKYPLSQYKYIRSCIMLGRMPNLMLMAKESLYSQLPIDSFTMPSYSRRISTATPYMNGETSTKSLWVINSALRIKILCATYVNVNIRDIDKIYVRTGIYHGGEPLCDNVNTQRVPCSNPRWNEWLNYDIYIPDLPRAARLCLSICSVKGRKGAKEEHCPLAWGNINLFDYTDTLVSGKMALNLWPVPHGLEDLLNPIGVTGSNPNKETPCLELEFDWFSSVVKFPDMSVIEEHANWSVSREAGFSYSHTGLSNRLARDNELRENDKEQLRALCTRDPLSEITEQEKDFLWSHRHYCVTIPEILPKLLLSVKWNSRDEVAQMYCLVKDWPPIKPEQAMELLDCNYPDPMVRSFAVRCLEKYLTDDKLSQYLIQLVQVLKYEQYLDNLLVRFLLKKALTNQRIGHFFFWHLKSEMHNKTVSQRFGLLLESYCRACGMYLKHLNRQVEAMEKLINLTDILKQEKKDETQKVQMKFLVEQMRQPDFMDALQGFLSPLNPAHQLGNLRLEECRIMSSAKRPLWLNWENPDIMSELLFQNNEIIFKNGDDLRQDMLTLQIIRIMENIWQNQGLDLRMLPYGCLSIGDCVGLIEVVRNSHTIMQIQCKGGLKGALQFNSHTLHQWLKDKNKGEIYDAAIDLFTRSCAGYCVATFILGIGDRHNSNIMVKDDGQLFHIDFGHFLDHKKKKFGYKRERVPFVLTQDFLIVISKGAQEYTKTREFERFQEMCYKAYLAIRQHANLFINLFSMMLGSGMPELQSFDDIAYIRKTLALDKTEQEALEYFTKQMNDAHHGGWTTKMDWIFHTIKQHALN
PI3-Kα, sequence (P26450 whole entry partner, the tested form may be a part): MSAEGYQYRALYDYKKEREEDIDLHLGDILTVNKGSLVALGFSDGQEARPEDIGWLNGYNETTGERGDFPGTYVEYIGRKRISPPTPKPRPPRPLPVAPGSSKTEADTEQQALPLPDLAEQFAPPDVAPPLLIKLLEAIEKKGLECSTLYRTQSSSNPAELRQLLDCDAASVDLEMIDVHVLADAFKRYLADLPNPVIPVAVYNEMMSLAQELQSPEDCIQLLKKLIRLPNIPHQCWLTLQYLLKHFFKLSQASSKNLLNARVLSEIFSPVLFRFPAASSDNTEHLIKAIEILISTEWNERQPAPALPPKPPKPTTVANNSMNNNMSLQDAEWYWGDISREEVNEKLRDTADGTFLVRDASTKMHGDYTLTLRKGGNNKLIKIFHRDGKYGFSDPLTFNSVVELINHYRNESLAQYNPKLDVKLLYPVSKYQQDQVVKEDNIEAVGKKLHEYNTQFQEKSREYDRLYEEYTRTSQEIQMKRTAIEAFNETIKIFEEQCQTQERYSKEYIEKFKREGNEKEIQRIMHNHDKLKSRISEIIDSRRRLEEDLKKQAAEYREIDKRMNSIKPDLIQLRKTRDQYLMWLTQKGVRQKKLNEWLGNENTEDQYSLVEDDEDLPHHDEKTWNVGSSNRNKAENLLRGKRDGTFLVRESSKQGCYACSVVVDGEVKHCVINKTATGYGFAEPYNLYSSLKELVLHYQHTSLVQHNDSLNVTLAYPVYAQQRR

Row | IC50 [1] | IC50 [2] | SMILES
1 | 6.82 nM | 13.2 nM | COc1ccc(-c2cc3c(C)nc(N)nc3n([C@H]3CC[C@H](OC[C@@H](O)CO)CC3)c2=O)cn1 [Compound 300, 2-amino-8-(trans-4-{[(2S)-2,3-dihydroxypropyl]oxy}cyclohexyl)-6-(6-methoxypyridin-3-yl)-4-methylpyrido[2,3-d]pyrimidin-7(8H)-one]
2 | 2.14 nM | 12.6 nM | COc1ncc(-c2cc3c(C)nc(N)nc3n([C@H]3C[C@H](OCC(N)=O)C3)c2=O)cc1F [Compound 318, 2-({trans-3-(2-amino-6-(5-fluoro-6-methoxypyridin-3-yl)-4-methyl-7-oxopyrido[2,3-yl]pyrimidin-8(7H)-yl)cyclobutyl}oxy)acetamide]
3 | 8.2 nM | 42 nM | Cc1nc(N)nc2c1cc(-c1cnc3ccccc3c1)c(=O)n2[C@H]1CC[C@H](O)CC1 [Compound 271, 2-amino-8-(trans-4-hydroxycyclohexyl)-4-methyl-6-(quinolin-3-yl)pyrido[2,3-d]pyrirnidin-7(8H)-one]
4 | 0.788 nM | 5.1 nM | CCNc1nc(C)c2cc(-c3cnc(OC)c(F)c3)c(=O)n([C@H]3CC[C@H](O)CC3)c2n1 [Compound 276, 2-(ethylamino)-6-(5-fluoro-6-methoxypyridin-3-yl)-8-(trans-4-hydroxycyclohexyl)-4-methylpyrido[2,3-d]pyrimidin-7(8H)-one]
5 | 10.2 nM | 50.8 nM | COc1ccc(-c2cc3c(C)nc(N)nc3n([C@H]3C[C@H](OCCO)C3)c2=O)cn1 [Compound 314, 2-amino-8-(trans-3-(2-hydroxyethoxy)cyclobutyl]-6-(6-methoxypyridin-3-yl)-4-methylpyrido[2,3-d]pyrimidin-7(8H)-one]
6 | 5.31 nM | 15.3 nM | COc1ncc(-c2cc3c(C)nc(N)nc3n([C@H]3CC[C@@H](OCCO)CC3)c2=O)cn1 [Compound 293, 2-amino-8-[cis-4-(2-hydroxyethoxy)cyclohexyl]-6-(2-methoxypyrimidin-5-yl)-4-methylpyrido[2,3-d]pyrimidin-7(8H)-one]
7 | 2.2 nM | 49.3 nM | COc1ncc(-c2cc3c(C)nc(N)nc3n(C(C)C)c2=O)cn1 [Compound 266, 2-amino-8-isopropyl-6-(2-methoxypyrimidin-5-yl)-4-methylpyrido[2,3-d]pyrimidin-7(8H)-one]
8 | 67 nM | 181 nM | CNc1nc(C)c2cc(-c3c[nH]c(C)n3)c(=O)n(C3CCCC3)c2n1 [Compound 245, 8-Cyclopentyl-4-methyl-2-methylamino-6-(2-methyl-1H-imidazol-4-yl)-8H-pyrido[2,3-d]pyrimidin-7-one]
9 | 110 nM | 657 nM | C#Cc1cc2c(C)nc(N)nc2n(C2CCC2)c1=O [Compound 270, 2-Amino-8-cyclobutyl-6-ethynyl-4-methylpyrido[2,3-d]pyrimidin-7(8H)-one]
10 | 11 nM | 23.1 nM | Cc1cc(-c2cc3c(C)nc(N)nc3n(C3CCCC3)c2=O)cnc1N(C)C [Compound 257, 2-amino-8-cyclopentyl-6-[6-(dimethylamino)-5-methylpyridin-3-yl]-4-methylpyrido[23-d]pyrimidin-7(8H)-one]
11 | 15 nM | 45.9 nM | COc1ccc(-c2cc3c(C)nc(N)nc3n(C3CCCC3)c2=O)cc1F [Compound 262, 2-amino-8-cyclopentyl-6-(3-fluoro-4-methoxyphenyl)-4-methylpyrido[23-d]pyrimidin-7(8H)-one]
12 | 19 nM | 4.92 nM | Cc1nc(N)nc2c1cc(-c1ccc(N3CCCC3)nc1)c(=O)n2[C@H]1CC[C@H](O)CC1 [Compound 253, 2-amino-8-(trans-4-hydroxycyclohexyl)-4-methyl-6-(6-pyrrolidin-1-ylpyridin-3-yl)pyrido[23-d]pyrimidin-7(8H)-one]

The next lines start with the compound.

Row | SMILES | IC50 [1] | IC50 [2]
13 | CNc1nc(C)c2cc(-c3cn[nH]c3)c(=O)n(C3CCCC3)c2n1 [Compound 124, 8-cyclopentyl-4-methyl-2-(methylamino)-6-(1H-pyrazol-4-yl)pyrido[2,3-d]pyrimidin-7(8H)-one] | 8 nM | 2.58 nM
14 | CCNc1nc(C)c2cc(-c3cccc(OC)c3)c(=O)n(C3CCCC3)c2n1 [Compound 142, 8-cyclopentyl-2-(ethylamino)-6-(3-methoxyphenyl)-4-methylpyrido[2,3-d]pyrimidin-7(8H)-one] | 792 nM | 1390 nM
15 | CCNc1nc(C)c2cc(-c3cccnc3N)c(=O)n(C3CCCC3)c2n1 [Compound 131, 6-(2-aminopyridin-3-yl)-8-cyclopentyl-2-(ethylamino)-4-methylpyrido[2,3-d]pyrimidin-7(8H)-one] | 3400 nM | 7980 nM
16 | CNc1nc(C)c2cc(Br)c(=O)n(CC3CCOC3)c2n1 (centres unmarked) [Compound 214, 6-bromo-4-methyl-2-(methylamino)-8-((tetrahydrofuran-3-yl)methyl)pyrido[2,3-d]pyrimidin-7(8H)-one] | 48 nM | 594 nM
17 | CCNc1nc(C)c2cc(CCC(=O)O)c(=O)n(C3CCCC3)c2n1 [Compound 130, 3-(8-Cyclopentyl-2-(ethylamino)-4-methyl-7-oxo-7,8-dihydropyrido[2,3-d]pyrimidin-6-yl)propanoic acid] | 54 nM | 10000 nM
18 | Cc1nc(N)nc2c1cc(-c1cnn(C)c1)c(=O)n2[C@H]1CC[C@H](O)CC1 [Compound 154, 2-amino-8-(trans-4-hydroxycyclohexyl)-4-methyl-6-(1-melhyl-1H-pyrazol-4-yl)pyrido[2,3-d]pyrimidin-7(8H)-one] | 18 nM | 475 nM
19 | CNc1nc(C)c2cc(/C=C/O)c(=O)n(C3CCCC3)c2n1 [Compound 120, (E)-8-cyclopentyl-6-(2-hydroxyvinyl)-4-methyl-2-(methylamino)pyrido[2,3-d]pyrimidin-7(8H)-one] | 42 nM | 896 nM
20 | COc1ccc(-c2cc3c(C)nc(N)nc3n([C@H]3CC[C@H](OC)CC3)c2=O)cn1 [Compound 179, 2-Amino-8-(trans-4-methoxycyclohexyl)-6-(6-methoxypyridin-3-yl)-4-methylpyrido[2,3-d]pyrimidin-7(8H)-one] | 3.9 nM | 7.37 nM
21 | Cc1nc(N)nc2c1cc(-c1cn[nH]c1)c(=O)n2C1CCOCC1 [Compound 199, 2-amino-4-methyl-6-(1H-pyrazol-4-yl)-8-(tetrahydro-2H-pyran-4-yl)pyrido[2,3-d]pyrimidin-7(8H)-one] | 18.5 nM | 19.9 nM
22 | CNc1nc(C)c2cc(C(N)=O)c(=O)n(C3CCCC3)c2n1 [Compound 123, 8-Cyclopentyl-4-methyl-2-(methylamino)-7-oxo-7,8-dihydropyrido[2,3-d]pyrimidine-6-carboxamide] | 68 nM | 650 nM
23 | CNc1nc(C)c2cc(-c3cccc(CO)c3)c(=O)n(C3CCCC3)c2n1 [Compound 148, 8-Cyclopentyl-6-(3-(hydroxymethyl)phenyl)-4-methyl-2-(methylamino)pyrido[2,3-d]pyrimidin-7(8H)-one] | 4.78 nM | 14.7 nM
24 | CO[C@H]1CC[C@H](n2c(=O)c(Br)cc3c(C)nc(N)nc32)CC1 [Compound 178] | 31 nM | 64 nM
25 | CNc1nc(C)c2cc(-c3ncccc3F)c(=O)n(C3CCCC3)c2n1 [Compound 134, 8-cyclopentyl-6-(3-fluoropyridin-2-yl)-4-methyl-2-(methylamino)pyrido[2,3-d]pyrimidin-7(8H)-one] | 2100 nM | 8300 nM
26 | Cc1nc(N)nc2c1cc(-c1cncc(N)n1)c(=O)n2C1CCCC1 [Compound 230, 2-amino-6-(6-aminopyrazin-2-yl)-8-cyclopentyl-4-methylpyrido[2,3-d]pyrimidin-7(8H)-one] | 20 nM | 33.9 nM
27 | COc1ccc(-c2cc3c(C)nc(N)nc3n([C@@H]3CC[C@@H](O)C3)c2=O)cn1 [Compound 159, 2-amino-8-[(1R,3R)-3-hydroxycyclopentyl]-6-(6-methoxypyridin-3-yl)-4-methylpyrido[2,3-d]pyrimidin-7(8H)-one] | 4.6 nM | 87.6 nM
28 | Cc1nc(N)nc2c1cc(-c1cn[nH]c1)c(=O)n2[C@H]1CC[C@H](O)CC1 [Compound 156, 2-amino-8-(trans-4-hydroxycyclohexyl)-4-methyl-6-(1H-pyrazol-4-yl)pyrido(2,3-d]pyrimidin-7(8H)-one] | 6.7 nM | 169 nM

From patent publication US8633204B2 (Pfizer Inc., priority 2006, dated 2014)
